In patent US20170045520A1, “METHOD FOR PREDICTING RESPONSE TO THERAPY FOR CANCER” (National University of Singapore, priority 2014, published 2017):
Where two headings read alike, the source gives them in different places.

System: WBP2 overexpressing cancer cells
Test: Drug sensitivity of cells overexpressing WT ITCH versus C830A or E855K mutant ITCH to Wnt inhibitors
Format: cell-based
Experimental: This was indeed the case for up to 0.0001 μM and 5 μM for FH535 and C59, respectively, but above these doses, the distinction was lost probably as a result of non-specific cytotoxicity (FIGS. 8 and 9). This implies that ITCH inactivating mutations could be used to predict for response to Wnt inhibitors especially in cancers that are dependent on WBP2.

[1] = WT ITCH vs C830A or E855K mutant ITCH overexpression, FIGS. 8 and 9

Structure (SMILES)	dose up to which the difference in sensitivity between WT ITCH and mutant ITCH cells held (above it the distinction was lost, probably non-specific cytotoxicity) [µM]	sensitivity of cells to the Wnt inhibitor when WT ITCH is overexpressed (low WBP2) compared to when C830A or E855K mutant is overexpressed (high WBP2) [1]	dose up to which the difference in sensitivity between WT ITCH and mutant ITCH cells held (above it the distinction was lost, probably non-specific cytotoxicity) [1]
Cc1cc(-c2ccc(CC(=O)Nc3ccc(-c4cccnc4)cc3)cc2)ccn1 [C59]	≤ 5	less sensitive	–
Cc1cc([N+](=O)[O-])ccc1NS(=O)(=O)c1cc(Cl)ccc1Cl [FH535]	–	less sensitive	up to 0.0001 μM
